This is an account of results in ChEMBL document CHEMBL1131957, “Structure-activity relationship of a series of diaminoalkyl substituted benzimidazole as neuropeptide Y Y1 receptor antagonists” (Bioorg Med Chem Lett, 1999).

pKi: −log10 of the molar value.

In experiment [1] the target is T1, Neuropeptide Y receptor type 1 (Homo sapiens, UniProt P25929).
T1 sequence (P25929 whole entry): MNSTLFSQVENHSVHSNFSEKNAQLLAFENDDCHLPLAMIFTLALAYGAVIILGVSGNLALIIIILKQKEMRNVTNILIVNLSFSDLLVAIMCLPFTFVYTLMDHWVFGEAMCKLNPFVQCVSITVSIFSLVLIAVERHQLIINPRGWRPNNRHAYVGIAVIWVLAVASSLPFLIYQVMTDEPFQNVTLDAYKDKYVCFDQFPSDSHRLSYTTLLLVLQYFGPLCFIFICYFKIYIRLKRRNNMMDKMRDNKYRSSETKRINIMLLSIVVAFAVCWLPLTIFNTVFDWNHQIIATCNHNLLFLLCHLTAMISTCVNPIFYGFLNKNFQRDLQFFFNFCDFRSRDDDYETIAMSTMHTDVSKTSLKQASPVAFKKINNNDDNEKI
Put plainly: Ability to displace [125I]-peptide YY binding to cloned human Neuropeptide Y receptor type 1 expressed in AV-12 cells. Format: cell-based, AV12.

The target in experiment [2] is Neuropeptide Y receptor type 4 (Homo sapiens) (UniProt P50391). Put plainly: Ability to displace [125I]-peptide YY binding to cloned human Neuropeptide Y receptor type 4 expressed in CHO cells at a concentration of 1 uM. Format: cell-based.
Neuropeptide Y receptor type 4 (Homo sapiens), sequence (P50391 whole entry): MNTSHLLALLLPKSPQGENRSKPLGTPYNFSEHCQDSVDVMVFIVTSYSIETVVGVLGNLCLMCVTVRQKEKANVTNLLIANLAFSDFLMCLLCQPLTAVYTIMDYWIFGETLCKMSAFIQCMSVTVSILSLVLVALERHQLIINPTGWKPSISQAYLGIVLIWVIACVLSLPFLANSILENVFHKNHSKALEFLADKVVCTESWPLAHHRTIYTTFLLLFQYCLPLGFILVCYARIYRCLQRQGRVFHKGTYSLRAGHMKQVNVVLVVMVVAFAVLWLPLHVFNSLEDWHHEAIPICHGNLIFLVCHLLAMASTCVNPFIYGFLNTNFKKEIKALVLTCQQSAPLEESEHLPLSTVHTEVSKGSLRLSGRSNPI
The target of experiment [3] is T2, Neuropeptide Y receptor type 5 (Homo sapiens) (UniProt Q15761).
T2 sequence (whole entry): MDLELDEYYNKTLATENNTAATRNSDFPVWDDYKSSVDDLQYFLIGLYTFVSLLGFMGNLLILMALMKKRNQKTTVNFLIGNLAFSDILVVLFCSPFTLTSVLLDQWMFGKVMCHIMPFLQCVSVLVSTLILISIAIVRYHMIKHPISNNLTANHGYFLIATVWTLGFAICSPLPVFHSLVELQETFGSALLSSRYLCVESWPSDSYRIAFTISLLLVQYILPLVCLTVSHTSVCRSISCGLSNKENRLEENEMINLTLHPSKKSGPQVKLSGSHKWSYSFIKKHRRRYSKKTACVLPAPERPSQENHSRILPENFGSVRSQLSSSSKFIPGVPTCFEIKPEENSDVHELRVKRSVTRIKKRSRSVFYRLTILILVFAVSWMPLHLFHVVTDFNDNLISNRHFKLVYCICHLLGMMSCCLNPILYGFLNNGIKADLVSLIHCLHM
Kind of experiment: Ability to displace [125I]-peptide YY binding to cloned human Neuropeptide Y receptor type 5 expressed in CHO cells at a concentration of 1 uM. Format: cell-based.

Experiment [4] has as its system SK-N-MC. Put plainly: Ability to antagonize 1 nM NPY''s inhibition of forskolin-stimulated cyclic AMP accumulation in SK-N-MC cells. Format: functional, cell-based, Homo sapiens.
For experiment [5], the target named is T3, Neuropeptide Y receptor type 2 (Homo sapiens) (UniProt P49146).
T3 sequence (whole entry): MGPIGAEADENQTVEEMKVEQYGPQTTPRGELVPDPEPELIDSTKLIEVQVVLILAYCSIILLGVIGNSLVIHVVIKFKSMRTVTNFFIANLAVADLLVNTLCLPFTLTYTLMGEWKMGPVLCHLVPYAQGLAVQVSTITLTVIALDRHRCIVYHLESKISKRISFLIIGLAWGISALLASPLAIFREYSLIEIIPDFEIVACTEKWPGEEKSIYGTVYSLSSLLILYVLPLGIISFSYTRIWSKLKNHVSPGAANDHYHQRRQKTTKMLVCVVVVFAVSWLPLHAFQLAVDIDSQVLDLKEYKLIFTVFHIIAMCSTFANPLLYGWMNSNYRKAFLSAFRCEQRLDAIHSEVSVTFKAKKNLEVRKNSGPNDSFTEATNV
Put plainly: Ability to displace [125I]-peptide YY binding to cloned human Neuropeptide Y receptor type 2 expressed in CHO cells at a concentration of 1 uM. Format: cell-based.

As usually defined, the pKi is −log10 of the Ki, conventionally taken in molar units. Lower therefore signals a large Ki. `CC(C)CCN1CCC(CCCn2c(COc3ccccc3)nc3c(OCCCN4CCCCC4)cccc32)CC1` gave a negative logarithm of the Ki (pKi) in experiment [1] of 9.54. Still for that read-out and setting: with `c1ccc(CCN2CCC(CCCn3c(COc4ccccc4)nc4c(OCCCN5CCCCC5)cccc43)CC2)cc1` the figure was 9.72; with `C=CCN1CCC(CCCn2c(COc3ccccc3)nc3c(OCCCN4CCCCC4)cccc32)CC1`, 8.79. Same read-out and setting: under `CC(C)N1CCC(CCCn2c(COc3ccccc3)nc3c(OCCCN4CCCCC4)cccc32)CC1` stands 8.79; under `CN1CCC(CCCn2c(COc3ccccc3)nc3c(OCCCN4CCCCC4)cccc32)CC1`, 8.79.

With `Oc1ccc(CCN2CCC(CCCn3c(COc4ccccc4)nc4c(OCCCN5CCCCC5)cccc43)CC2)cc1`, the pKi in experiment [1] is 9.50. With `CC(C)CN1CCC(CCCn2c(COc3ccccc3)nc3c(OCCCN4CCCCC4)cccc32)CC1`, in experiment [1], the negative-log Ki (pKi) was 9.08. Same read-out and setting: under `C=CCCN1CCC(CCCn2c(COc3ccccc3)nc3c(OCCCN4CCCCC4)cccc32)CC1` stands 9.15; under `c1ccc(OCc2nc3c(OCCCN4CCCCC4)cccc3n2CCCC2CCNCC2)cc1`, 8.35. Broadly, the inhibition is the share of the control response that was lost under treatment. High values mean strong suppression, low ones little suppression. As for `Ic1ccc(CCN2CCC(CCCn3c(COc4ccccc4)nc4c(OCCCN5CCCCC5)cccc43)CC2)cc1`, the inhibition in experiment [2], in experiment [3] and in experiment [5] was less than 50% in each case. The pKi in experiment [1] is 10.28; in experiment [4], 8.22.

Regarding `c1ccc(OCc2nc3c(OCCCN4CCCCC4)cccc3n2CCCC2CCN(CCCN3CCCCC3)CC2)cc1`, the pKi in experiment [1] was 9.97; in experiment [4], 9.25. In experiment [1], `O=C(CCCN1CCC(CCCn2c(COc3ccccc3)nc3c(OCCCN4CCCCC4)cccc32)CC1)c1ccccc1` had a negative-log Ki (pKi) of 9.88. On the same count and under the same terms, with `O=C(CN1CCC(N2CCCCC2)CC1)c1c(COc2ccc(Cl)cc2)n(CCCC2CCCNC2)c2ccccc12` (stereo not given) the figure was 9.12. Take `c1ccc(OCc2nc3c(OCCCN4CCCCC4)cccc3n2CCCC2CCN(CCC3CCCCC3)CC2)cc1`: the negative logarithm of the Ki (pKi) was 9.55 in experiment [1] and 8.28 in experiment [4].

For `C(=C/c1ccccc1)/CN1CCC(CCCn2c(COc3ccccc3)nc3c(OCCCN4CCCCC4)cccc32)CC1`, the negative logarithm of the Ki (pKi) in experiment [1] was 9.74. In the case of `c1ccc(CCCN2CCC(CCCn3c(COc4ccccc4)nc4c(OCCCN5CCCCC5)cccc43)CC2)cc1`, the pKi is 9.44 in experiment [1] and 8.47 in experiment [4]. Compound `O=C(CCN1CCC(CCCn2c(COc3ccccc3)nc3c(OCCCN4CCCCC4)cccc32)CC1)c1ccccc1` had a pKi in experiment [1] of 9.95. On to `c1ccc(OCc2nc3c(OCCCN4CCCCC4)cccc3n2CCCC2CCN(CC3CCCCC3)CC2)cc1`, for which the pKi in experiment [1] is 9.41.
